Test results taken from patent publication US10844062B2, “Pyridine derivative inhibiting RAF kinase and vascular endothelial growth factor receptor, method for preparing same, pharmaceutical composition containing same, and use thereof” (SAMJIN PHARMACEUTICAL CO., LTD., priority 2016, dated 2020).

These compounds were tested on LS513 KRAS G12V (colon) (assay: MTT assay). Details: Homo sapiens, LS-513, 72 h, Table 4; 3 days incubation; read-out: MTT assay IC50 KRAS mutant (Colon) LS513 KRAS G12V.
Format: cell-based
Method: MTT assay is frequently used for the purpose of primary screening for the sensitivity of anticancer agents and to examine cytotoxicity. When cancer cells are treated with varying concentrations of any anticancer agent for a predetermined time to induce death of the cells and are then treated with MTT, and when the formation of formazan is measured, the concentration of the anticancer agent, at which about 50% of the cells survive, can be determined. This concentration value is called IC50. IC50 values differ between drugs, and thus can be characteristic of the drugs. Using this method, the effects of anticancer agents against cell proliferation can be quantitatively compared. Thus, in order to measure the cytotoxicity of samples, MTT assay was performed using CellTiter 96 Non-radioactive Cell Proliferation Assay Kit (Promega).
Cells in a cell suspension were counted with a hematocytometer, and then 200 μL of the cell suspension was added to each well of a 96 well plate at a desired concentration (cell amount determined depending on a cell line). After cell seeding, the cells were incubated in a CO2 incubator at 37° C. overnight. After one day of cell stabilization, the cells were treated with desired concentrations of the compounds. The cells were incubated in a CO2 incubator at 37° C. for 3 days, and then the sample was removed, and 200 μL of MTT solution was added to each well. After 2 hours of incubation, the MTT dilution was carefully shaken, and 200 μL of DMSO was added to each well, followed by shaking with a plate shaker for 60 minutes.
`O=C(Nc1ccc(Nc2ncccc2-c2ncnc3[nH]cnc23)cc1)c1cccc(C(F)(F)F)c1` [Example 79, N-4-[3-(9H-Purin-6-Yl)Pyridin-2-Ylamino]Phenyl-3-Trifluoromethylbenzamide] was tested, and the IC50 was greater than 10000 nM.
`COc1cc(Nc2ncccc2-c2ncnc3[nH]cnc23)ccc1NC(=O)c1cccc(C(F)(F)F)c1` [Example 80, N-2-Methoxy-4-[3-(9H-Purin-6-Yl)Pyridin-2-Ylamino]Phenyl-3-Trifluoromethylbenzamide] showed an IC50 greater than 10000 nM.
`O=C(Nc1ccc(F)c(Nc2ncccc2-c2ncnc3[nH]cnc23)c1F)N1CCN(c2ccc(F)cc2)C1=O` [Example 81, N-(3-(3-(9H-purin-6-yl)pyridin-2-ylamino)-2,4-difluorophenyl)-3-(4-fluorophenyl)-2-oxoimidazolidine-1-carboxamide] was tested, and the IC50 was 388 nM.
Work on `CC(C)(C#N)c1cccc(C(=O)Nc2cc(Nc3ncccc3-c3ncnc4[nH]ccc34)c(F)cc2F)c1` [Example 84, N-(5-(3-(7H-Pyrrolo[2,3-d]Pyrimidin-4-Yl)Pyridin-2-Ylamino)-2,4-Diflurophenyl)-3-(2-Cyanopropan-2-Yl)Benzamide] yielded an IC50 of 118 nM.
Compound `CC(C)(C#N)c1cccc(C(=O)Nc2ccc(F)c(Nc3ncccc3-c3ncnc4[nH]ccc34)c2F)c1` [Example 85, N-(3-(3-(7H-Pyrrolo[2,3-d]Pyrimidin-4-Yl)Pyridin-2-Ylamino)-2,4-Difluorophenyl)-3-(2-Cyanopropan-2-Yl)Benzamide] has an IC50 of 676 nM.
Work on `CC(C)(C#N)c1cccc(C(=O)Nc2cccc(Nc3ncccc3-c3ncnc4[nH]ccc34)c2F)c1` [Example 86, N-(3-(3-(7H-Pyrrolo[2,3-d]Pyrimidin-4-Yl)Pyridin-2-Ylamino)-2-Fluorophenyl)-3-(2-Cyanopopan-2-Yl)Benzamide] yielded an IC50 greater than 10000 nM.
Compound `O=C(Nc1cc(Nc2ncccc2-c2ncnc3[nH]ccc23)ccc1F)c1cccc(C(F)(F)F)c1` [Example 87, N-2-Fluoro-5-[3-(7H-Pyrrolo[2,3-d]Pyrimidin-4-Yl)Pyridin-2-Ylamino]Phenyl-3-Trifluoromethyl Benzamide] has an IC50 of 2180 nM.
With `O=C(Nc1cc(Nc2ncccc2-c2ncnc3[nH]ccc23)ccc1F)c1cc(F)cc(C(F)(F)F)c1` [Example 88, 3-Fluoro-N-2-Fluoro-5-[3-(7H-Pyrrolo[2,3-d]Pyrimidin-4-Yl)Pyridin-2-Ylamino]Phenyl-5-Trifluoromethyl Benzamide] the IC50 was 609 nM.
For `CC(C)(C#N)c1cccc(C(=O)Nc2cc(Nc3ncccc3-c3ncnc4[nH]ccc34)ccc2F)c1` [Example 91, 3-(2-Cyanopropan-2-Yl)-N-2-Fluoro-5-[3-(7H-Pyrrolo[2,3-d]Pyrimidin-4-Yl)Pyridin-2-Ylamino]Phenyl Benzamide], the IC50 was 1120 nM.
Work on `CC(C)(C#N)c1cc(F)cc(C(=O)Nc2cc(Nc3ncccc3-c3ncnc4[nH]ccc34)ccc2F)c1` [Example 92, 3-(2-Cyanopropan-2-Yl)-5-Fluoro-N-2-Fluoro-5-[3-(7H-Pyrrolo[2,3-d]Pyrimidin-4-Yl)Pyridin-2-Ylamino]Phenyl Benzamide] yielded an IC50 of 1510 nM.
In the case of `O=C(Nc1cc(Nc2ncccc2-c2ncnc3[nH]cnc23)ccc1F)c1ccc(F)c(C(F)(F)F)c1` [Example 111, N-5-[(3-(9H-Purin-6-Yl)Pyridin-2-Yl)Amino]-2-Fluorophenyl-4-Fluoro-3-(Trifluoromethyl)Benzamide], the IC50 is reported as 300 nM.
With `CC(C)(C#N)c1cccc(NC(=O)c2cc(Nc3ncccc3-c3ncnc4[nH]cnc34)ccc2F)c1` [Example 112, 5-[3-(9H-Purin-6-Yl)Amino]-N-[3-(2-Cyanopropan-2-Yl)Phenyl]-2-Fluorobenzamide] the IC50 was greater than 10000 nM.
`O=C(Nc1cc(Nc2ncccc2-c2ncnc3[nH]cnc23)ccc1F)c1cccc(F)c1` [Example 113, N-5-[(3-(9H-Purin-6-Yl)Pyridin-2-Yl)Amino]-2-Fluorophenyl-3-Fluorobenzamide] was tested, and the IC50 was 1480 nM.
`CC(C)(C#N)c1cc(C(=O)Nc2cc(Nc3ncccc3-c3ncnc4[nH]cnc34)ccc2F)ccc1F` [Example 116, N-5-[(3-(9H-purin-6-yl)pyridin-2-yl)amino]-2-fluoropheny-3-(2-cyanopropan-2-yl)-4-fluorobenzamide] was tested, and the IC50 was 587 nM.
Compound `CC(C)(C#N)c1cc(C(=O)Nc2cc(Nc3ncccc3-c3ncnc4[nH]cnc34)ccc2F)ccc1Cl` [Example 117, N-5-[(3-(9H-purin-6-yl)pyridin-2-yl)amino]-2-fluorophenyl-4-chloro-3-(2-cyanopropan-2-yl)benzamide] has an IC50 of 868 nM.
Compound `O=C(Nc1cccc(C(F)(F)F)c1)Nc1cc(Nc2ncccc2-c2ncnc3[nH]cnc23)ccc1F` [Example 118, 1-5-[(3-(9H-purin-6-yl)pyridin-2-yl)amino]-2-fluorophenyl-3-[3-(trifluoromethyl)phenyl]urea] has an IC50 of 153 nM.
`CC(C)(C#N)c1cccc(C(=O)Nc2cc(Nc3ncccc3-c3ncnc4[nH]cnc34)ccc2F)n1` [Example 119, N-5-[(3-(9H-purin-6-yl)pyridin-2-yl)amino]-2-fluorophenyl-6-(2-cyanopropan-2-yl)picolinamide] was tested, and the IC50 was greater than 10000 nM.
`O=C(Nc1cc(Nc2ncccc2-c2ncnc3[nH]cnc23)ccc1F)c1cc(C(F)(F)F)ccc1F` [Example 120, N-5-[(3-(9H-purin-6-yl)pyridin-2-yl)amino]-2-fluorophenyl-2-fluoro-5-(trifluoromethyl)benzamide] gave an IC50 of 3380 nM.
`O=C(Nc1cc(Nc2ncccc2-c2ncnc3[nH]cnc23)ccc1F)c1cccc(C(F)(F)F)c1F` [Example 121, N-5-[(3-(9H-purin-6-yl)pyridin-2-yl)amino]-2-fluorophenyl-2-fluoro-3-(trifluoromethyl)benzamide] showed an IC50 of 304 nM.
With `O=C(Nc1cccc(Nc2ncccc2-c2ncnc3[nH]cnc23)c1F)c1cccc(C(F)(F)F)c1` [Example 122, N-3-[(3-(9H-purin-6-yl)pyridin-2-yl)amino]-2-fluorophenyl-3-(trifluoromethyl)benzamide] the IC50 was 6580 nM.
Compound `O=C(Nc1ccc(C(F)(F)F)cc1)Nc1cc(Nc2ncccc2-c2ncnc3[nH]cnc23)ccc1F` [Example 123, 1-5-[(3-(9H-purin-6-yl)pyridin-2-yl)amino]-2-fluorophenyl-3-[4-(trifluoromethyl)phenyl]urea] has an IC50 of 392 nM.
Compound `O=C(Nc1cc(Nc2ncccc2-c2ncnc3[nH]cnc23)ccc1Cl)c1cc(C(F)(F)F)cc(C(F)(F)F)c1` [Example 124, N-5-[(3-(9H-purin-6-yl)pyridin-2-yl)amino]-2-chlorophenyl-3,5-bis(trifluoromethyl)benzamide] has an IC50 of 888 nM.
`CSc1cccc(C(=O)Nc2cc(Nc3ncccc3-c3ncnc4[nH]cnc34)ccc2F)c1` [Example 125, N-5-[(3-(9H-purin-6-yl)pyridin-2-yl)amino]-2-fluorophenyl-3-(methylthio)benzamide] showed an IC50 of 767 nM.
With `CS(=O)(=O)c1cccc(C(=O)Nc2cc(Nc3ncccc3-c3ncnc4[nH]cnc34)ccc2F)c1` [Example 126, N-5-[(3-(9H-purin-6-yl)pyridin-2-yl)amino]-2-fluorophenyl-3-(methylsulfonyl)benzamide] the IC50 was 1110 nM.
With `CC(C)(C#N)c1cc(F)cc(C(=O)Nc2cc(Nc3ncccc3-c3ncnc4[nH]cnc34)ccc2Cl)c1` [Example 127, N-5-[(3-(9H-purin-6-yl)pyridin-2-yl)amino]-2-chlorophenyl-3-(2-cyanopropan-2-yl)-5-fluorobenzamide] the IC50 was 591 nM.
Work on `O=C(Nc1cc(Nc2ncccc2-c2ncnc3[nH]cnc23)ccc1F)c1ccc(C(F)(F)F)cc1C(F)(F)F` [Example 128, N-5-[(3-(9H-purin-6-yl)pyridin-2-yl)amino]-2-fluorophenyl-2,4-bis(trifluoromethyl)benzamide] yielded an IC50 of 1200 nM.
In the case of `O=C(Nc1cc(Nc2ncccc2-c2ncnc3[nH]cnc23)ccc1F)c1ccc(C(F)(F)F)c(C(F)(F)F)c1` [Example 129, N-5-[(3-(9H-purin-6-yl)pyridin-2-yl)amino]-2-fluorophenyl-3,4-bis(trifluoromethyl)benzamide], the IC50 is reported as 652 nM.
`O=C(Nc1cc(Nc2ncccc2-c2ncnc3[nH]cnc23)ccc1F)c1cc(C(F)(F)F)ccc1C(F)(F)F` [Example 130, N-5-[(3-(9H-purin-6-yl)pyridin-2-yl)amino]-2-fluorophenyl-2,5-bis(trifluoromethyl)benzamide] showed an IC50 of 1050 nM.
For `O=C(Nc1cc(Nc2ncccc2-c2ncnc3[nH]cnc23)ccc1F)c1cccc(OC(F)(F)F)c1` [Example 131, N-5-[(3-(9H-purin-6-yl)pyridin-2-yl)amino]-2-fluorophenyl-3-(trifluoromethoxy)benzamide], the IC50 was 102 nM.
Work on `COc1cc(OC)cc(C(=O)Nc2cc(Nc3ncccc3-c3ncnc4[nH]cnc34)ccc2F)c1` [Example 132, N-5-[(3-(9H-purin-6-yl)pyridin-2-yl)amino]-2-fluorophenyl-3,5-dimethoxybenzamide] yielded an IC50 of 585 nM.
With `O=C(Nc1cc(Nc2ncccc2-c2ncnc3[nH]cnc23)ccc1F)c1ccc(C(F)(F)F)c(F)c1` [Example 133, N-5-[(3-(9H-purin-6-yl)pyridin-2-yl)amino]-2-fluorophenyl-3-fluoro-4-(trifluoromethyl)benzamide] the IC50 was 5600 nM.
For `COc1ccc(C(=O)Nc2cc(Nc3ncccc3-c3ncnc4[nH]cnc34)ccc2F)cc1C(F)(F)F` [Example 134, N-5-[(3-(9H-purin-6-yl)pyridin-2-yl)amino]-2-fluorophenyl-4-methoxy-3-(trifluoromethyl)benzamide], the IC50 was 72 nM.
